“And” between values parts separate entries of the source, which are not always exact repeats. Equal entries are not always repeated. Where two headings read alike, the source gives them in different places.
How the values were obtained:
[1] = test system: fowl roundworm (Ascaridia galli); assay: Anthelmintic test in chickens artificially infected with fowl roundworm, single oral dose in gelatin capsule, worm bodies counted within 48 hours (Test Examples A1, B1, C1, D1); assay type: in vivo; settings: Ascaridia galli, po, 48 h, read-out: Anthelmintic effect after 48 hours
Summary of the method: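 Groups of three chickens with confirmed Ascaridia galli infection given a single oral dose in gelatin capsule (10 and 20 mg/kg in A1 and B1; 30 and 50 mg/kg in C1; 15 and 30 mg/kg in D1). Worms expelled over 48 h and those remaining in the gut at necropsy counted to give anthelmintic percentage.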

[2] = test system: Diphyllobothrium erinacei; assay: Test of anthelmintic effect against Diphyllobothrium erinacei (tapeworm) in experimentally infected cats (Test Examples A5, B5, C5, D5); settings: for anthelmintic effect: 5 continuous administrations of 50 mg/Kg
[3] = test system: fowl roundworm (As. galli); assay: Anthelmintic test in chickens artificially infected with fowl roundworm, compound added to feed, E.P.G. and worm count up to 21st day (Test Examples A2, B2, C2, D2); assay type: in vivo, Ascaridia galli
[4] = test system: swine Oesophagostomum (Oesophagostomum dentatum); assay: Test of anthelmintic effect against swine Oesophagostomum in naturally infected pigs, E.P.G. on 7th day (Test Examples A8, B8, C8, D8); assay type: in vivo; settings: for anthelmintic effect: one administration of 20 mg/Kg
Method: Six pigs infected with swine Oesophagostomum (naturally infected pigs) were employed by grouping them into groups each of two pigs.
As a control, only gelatin capsules were administered orally to the two pigs.
Before administration and on the 7th day after administration, fecal matter testing was conducted to calculate the E.P.G., and the anthelmintic effect was judged by the changing of the E.P.G. to negative.

[5] = test system: Liver fluke; Fasciola hepatica (F. hepatica); assay: Test of anthelmintic effect against rat infected experimentally with liver fluke (Test Examples A11, B11, C11, D11); assay type: in vivo; design: key to Presence or absence of fluke egg in fecal matter On 21st day after the last administration: +: indicates detection of fluke egg; -: indicates no detection; settings: rats, 50 mg/Kg x 5 orally, one value per rat
Excerpt: Twenty-eight (28) rats were employed in fourteen groups each of two rats, each rat being infected with 5 metacercariae of Liver fluke; Fasciola he^patica (F.. hepatica) and confirmed to have worm eggs on the 75th day after infection according to fecal matter testing.
Judgement of the effect was made by the presence or absence of the worm gees in the fecal matter on the 21st day after the last administration and by examination according to autopsis as to whether the worm bodies were dead or alive in the liver.
The same as that in Test Example All, but eight (8) rats were employed by grouping them into groups each of two rats, each rat being infected with 5 metacercariae of liver fluke and confirmed to have fluke eggs on the 75th day after infection according to fecal matter testing.
The compounds provided for the tests were Compound Nos. Bl, B8 and B19.
The same as that in Test Example All, but six (6) rats were employed by grouping them into groups each of two rats, each rat being infected with 5 metacercariae of Fasciola hepatica and confirmed to have worm eggs on the 75th day after infection according to fecal matter testing.
The compounds provided for the tests were Compound Nos. C2 and C6.
The same as that in Test Example All, but the compounds provided for tests were Compound Nos. D14, D15 and D16.

[6] = test system: canine filaria; Dirofilaria immitis; assay: Test of anthelmintic effect against canine filaria in naturally infected dogs, subcutaneous injection, microfilaria in blood and adult filaria at autopsy (Test Examples A10, B10, C10, D10); assay type: in vivo; settings: dogs
Method: Eight dogs infected with canine filaria; Diro- filaria immitis (naturally infected dogs) were employed in groups each of two dogs.
The compounds provided for tests were Compound Nos. Al, A3 and A12. 20 mg of each was administered by subcutaneous injection per Kg of body weight to each of the two dogs as a suspension in 1% "Tween 80" solution once per day for three days. As control, 3 ml of the 1% "Tween 80" solution was subcutaneously injected into two dogs once per day for three days.
Before administration and on the 10th day after administration, 20 µl of earlobe blood of each dog was sampled and examined to determine the change in microfilaria (mf) according to the concentrated smear color method, and judgement on the effect on microfilaria (mf) was made. Judgement relating to adult filaria was made on the 10th day after the last administration by killing the dogs and carrying out autopsis.
30 mg of each compound was administered by subcutaneous injection per Kg of body weight to each of the two dogs as a suspension in 1% "Tween 80" solution once per day for three days. As control, 3 ml of the 1% "Tween 80" solution was subcutaneously injected into two dogs once per day for three days.
30 mg of each compound was administered by subcutaneous injection per Kg of body weight to each of two dogs as a suspension in 1% "Tween 80" solution once per day for three days. As control, 3 ml of the 1% "Tween 80" solution was subcutaneously injected to two dogs once per day for three days.
20 mg of each compound was administered by subcutaneous injection per kg of body weight once per day for three days to each of two dogs. These compounds were administered as a suspension in 1% "Tween 80" in the case of Compound No.Dl3 and as solutions dissolved in distilled water for injection in the case of Compounds Nos. D10 and D16, respectively. As control, 3 ml of the 1% "Tween 80" solution was subcutaneously injected into two dogs once per day for three days.

[7] = chicken, 30 mg/Kg oral in gelatin capsule, chickens No.1-3
[8] = Ascaridia galli, feed or water, 504 h, chicken, 25 ppm in feed, read-out: Anthelmintic effect
[9] = Ascaridia galli, feed or water, 504 h, chicken, 50 ppm in feed, read-out: Anthelmintic effect
[10] = Ascaridia galli, po, 504 h, chickens, 50 ppm added to feed, worm count on 21st day, one value per chicken, read-out: Anthelmintic effect
[11] = pigs, 20 mg/Kg orally once, baseline, one value per pig, 20 mg/kg
[12] = pigs, 20 mg/Kg orally once, one value per pig
[13] = 20 mg/Kg x 3 subcutaneously, autopsy on 10th day after the last administration, one value per dog, 20 mg/kg

C=CCON(CC=C)C(=O)c1ccc(F)cc1 [Compound C7]
inhibition in vivo at 30 mg/kg [1, 7]: 100%
inhibition in vivo at 50 mg/kg ([1]; chicken, 50 mg/Kg oral in gelatin capsule, chickens No.1-3): 100%
Number of worm bodies remaining in enteron ([2]; cat, 50 mg/Kg x 5, oral in gelatin capsule): 0
Worm egg detection on 10th day after administration ([2]; cat, 50 mg/Kg x 5, oral in gelatin capsule, once per day for 5 days): -
anthelmintic effect ([2]; cats): marked anthelmintic effects
inhibition in vivo at 25 ppm [3, 8]: 100%
inhibition in vivo at 50 ppm [3, 9]: 100%
Change of E.P.G. 21st day ([3]; chicken, 25 ppm in feed): 0
Change of E.P.G. 21st day ([3]; chicken, 50 ppm in feed): 0

C=CCN(OCCCCC)C(C)=O [Compound B20]
inhibition in vivo at 30 mg/kg ([1]; chickens, 30 mg/Kg orally in gelatin capsule, one value per chicken (No.1-3)): 100%
inhibition in vivo at 50 mg/kg ([1]; chickens, 50 mg/Kg orally in gelatin capsule, one value per chicken (No.1-3)): 100%
inhibition in vivo at 20 ppm ([3]; Ascaridia galli, po, 504 h, chickens, 20 ppm added to feed, worm count on 21st day, one value per chicken, read-out: Anthelmintic effect): 100%
inhibition in vivo at 50 ppm [3, 10]: 100%
Change of E.P.G. Before administration [4, 11]: 1,000 E.P.G. and 1,600 E.P.G.
Change of E.P.G. 7th day [4, 12]: 0 E.P.G.
anthelmintic effect ([4]; pigs): marked anthelmintic effect

C#CCN(OCC=C)C(=O)c1ccc(F)cc1 [Compound A12, N-propargyl-N-(p-fluorobenzoyl)-O-allylhydroxylamine]
Number of worm bodies remaining in enteron ([2]; cats infected with 5 plerocercoids, 50 mg/Kg x 5 times orally, autopsy ten days after administration, one value per cat): 0
Worm egg detection on 10th day after administration ([2]; cats, 50 mg/Kg x 5 times orally, one value per cat (Table A7)): -
anthelmintic effect ([2]; cats): marked anthelmintic effects
inhibition in vivo at 10 ppm ([3]; Ascaridia galli, po, 504 h, chickens, 10 ppm added to feed, worm count on 21st day, one value per chicken, read-out: Anthelmintic effect): 80 to 90%
inhibition in vivo at 50 ppm [3, 10]: 100%
Condition of fluke body ([5]; autopsy, liver, "Denatured" = fluke body is alive but a part of fluke body has changed): dead
Presence or absence of fluke egg in fecal matter On 21st day after the last administration [5]: -
Change of E.P.G. Before administration [4, 11]: 2,100 E.P.G. and 1,500 E.P.G.
Change of E.P.G. 7th day [4, 12]: 0 E.P.G.
anthelmintic effect ([4]; pigs): marked anthelmintic effect
inhibition in vivo at 20 mg/kg ([6]; Dirofilaria immitis, sc, 240 h, administration of 20 mg/Kg repeated three times, given as about 50% or more, read-out: anthelmintic effect against adult filaria): ≥ 50%
Effect on adult filaria: Number of worms killed/Total parasites [6, 13]: 13/21 and 15/26
Effect on adult filaria: Percent of worms killed [6, 13]: 62% and 58%
Number of microfilaria/20 µl On 10th day after the last administration ([6]; 20 mg/Kg x 3 subcutaneously, earlobe blood, one value per dog): 0 /20 µl
anthelmintic effect against microfilaria (mf) ([6]; administration of 20 mg/Kg repeated three times): marked anthelmintic effect

C=CCNOCC(C)C [Compound D3]
inhibition in vivo at 30 mg/kg [1, 7]: 100%
inhibition in vivo at 25 ppm [3, 8]: 80 to 90%
inhibition in vivo at 50 ppm [3, 9]: 100%
Change of E.P.G. 7th day ([4]; pig, Oesophagostomum dentatum, 20 mg/Kg, one administration): 0
Change of E.P.G. Before administration ([4]; pig, Oesophagostomum dentatum, before 20 mg/Kg (baseline)): 2,200 and 1,800
anthelmintic effect ([4]; pigs): marked anthelmintic effect
